What was measured:
galium = experiment: Test A postemergence herbicide test; type: in vivo, Galium aparine
Method in brief: (§1)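 Visual injury rating, 0 (no effect) to 100 (complete control), versus untreated controls ~10 days after treatment. Postemergence spray applied at one- to two-leaf stage, plants 2–10 cm tall, potted in loam soil/sand. Greenhouse-held.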

corn = experiment: Test A pre-/postemergence herbicide test; type: in vivo, Zea mays; conditions: Postemergence
Method in brief: (§2)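 Approximately 10 days after treatment in the greenhouse, plants were compared with untreated controls and given a 0–100 visual injury rating. Applications: preemergence directed soil spray; postemergence on 2–10 cm plants at the one- to two-leaf stage.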

wheat = experiment: Test A pre-/postemergence herbicide test; type: in vivo, Triticum aestivum; conditions: Postemergence
Method in brief: as §2

sedge, umbrella = experiment: Test B flooded paddy test; type: in vivo, Cyperus difformis; conditions: 500 g ai/ha, Flood; scale of 0 to 100 where 0 is no effect and 100 is complete control
Method in brief: (§3)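 First, plants reach the 2-leaf stage; next, pots are flooded to 3 cm and compound is delivered into the water; finally, after 13 to 15 greenhouse days at constant depth, injury is graded visually from 0 to 100 against controls.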

rice = experiment: Test B flooded paddy test; type: in vivo, Oryza sativa; conditions: 500 g ai/ha, Flood; scale of 0 to 100 where 0 is no effect and 100 is complete control
Method in brief: as §3

blackgrass = experiment: Test A postemergence herbicide test; type: in vivo, Alopecurus myosuroides
Method in brief: as §1

ragweed = experiment: Test A pre-/postemergence herbicide test; type: in vivo, Ambrosia elatior
Method in brief: as §2

pigweed = experiment: Test A pre-/postemergence herbicide test; type: in vivo, Amaranthus retroflexus
Method in brief: as §2

barnyardgrass [1] = experiment: Test B flooded paddy test; type: in vivo, Echinochloa crus-galli; conditions: 500 g ai/ha, Flood; scale of 0 to 100 where 0 is no effect and 100 is complete control
Method in brief: as §3

kochia = experiment: Test A pre-/postemergence herbicide test; type: in vivo, Kochia scoparia
Method in brief: as §2

giant foxtail = experiment: Test A pre-/postemergence herbicide test; type: in vivo, Setaria faberii
Method in brief: as §2

ryegrass, Italian = experiment: Test A pre-/postemergence herbicide test; type: in vivo, Lolium multiflorum
Method in brief: as §2

ducksalad = experiment: Test B flooded paddy test; type: in vivo, Heteranthera limosa; conditions: 500 g ai/ha, Flood; scale of 0 to 100 where 0 is no effect and 100 is complete control
Method in brief: as §3

barnyardgrass [2] = experiment: Test A pre-/postemergence herbicide test; type: in vivo, Echinochloa crus-galli
Method in brief: as §2

[3] = 125 g ai/ha, 0 to 100 scale, 0 is no effect, 100 is complete control
[4] = 500 g ai/ha, 0 to 100 scale (0 no effect, 100 complete control)
[5] = 125 g ai/ha, visual rating on 0 to 100 scale (0 no effect, 100 complete control), approx. 10 days
[6] = Postemergence, 125 g ai/ha, visual rating on 0 to 100 scale (0 no effect, 100 complete control), approx. 10 days
[7] = Postemergence, 500 g ai/ha, 0 to 100 scale (0 no effect, 100 complete control)
[8] = Preemergence, 125 g ai/ha, 0 to 100 scale where 0 is no effect and 100 is complete control
[9] = preemergence, 500 g ai/ha, 0 to 100 scale, 0 is no effect and 100 is complete control
[10] = Postemergence, 125 g ai/ha, 0 to 100 scale, 0 is no effect, 100 is complete control
[11] = Preemergence, 500 g ai/ha, visual rating on 0 to 100 scale (0 no effect, 100 complete control)

O=C1NCC(c2cc3ccccc3o2)C1C(=O)Nc1cccc(F)c1F (stereo not shown) [Compound 282]
Plant response rating, Galium (galium; [3]): 0
Plant response rating, Galium (galium; [4]): 40
Plant response rating, Corn (corn; [3]): 0
Plant response rating, Corn (corn; [4]): 0
Plant response rating, Wheat (wheat; [5]): 0
Plant response rating, Wheat (wheat; [4]): 0
Plant response rating, Sedge, Umbrella (sedge, umbrella): 30
Plant response rating, Rice (rice): 0
Plant response rating, Blackgrass (blackgrass; [3]): 0
Plant response rating, Blackgrass (blackgrass; [4]): 20
Plant response rating, Ragweed (ragweed; [6]): 0
Plant response rating, Ragweed (ragweed; [7]): 0
Plant response rating, Ragweed (ragweed; [8]): 0
Plant response rating, Ragweed (ragweed; [9]): 0
Plant response rating, Pigweed (pigweed; [6]): 0
Plant response rating, Pigweed (pigweed; [7]): 0
Plant response rating, Pigweed (pigweed; [8]): 0
Plant response rating, Pigweed (pigweed; [9]): 0
Plant response rating, Barnyardgrass (barnyardgrass [1]): 30
Plant response rating, Kochia (kochia; [10]): 0
Plant response rating, Kochia (kochia; [7]): 0
Plant response rating, Kochia (kochia; [8]): 0
Plant response rating, Kochia (kochia; [9]): 50
Plant response rating, Foxtail, Giant (giant foxtail; [10]): 0
Plant response rating, Foxtail, Giant (giant foxtail; [7]): 30
Plant response rating, Foxtail, Giant (giant foxtail; [8]): 20
Plant response rating, Foxtail, Giant (giant foxtail; [9]): 70
Plant response rating, Ryegrass, Italian (ryegrass, Italian; [6]): 0
Plant response rating, Ryegrass, Italian (ryegrass, Italian; [7]): 0
Plant response rating, Ryegrass, Italian (ryegrass, Italian; [8]): 0
Plant response rating, Ryegrass, Italian (ryegrass, Italian; [9]): 0
Plant response rating, Ducksalad (ducksalad): 95
Plant response rating, Barnyardgrass (barnyardgrass [2]; [10]): 50
Plant response rating, Barnyardgrass (barnyardgrass [2]; [7]): 90
Plant response rating, Barnyardgrass (barnyardgrass [2]; [8]): 60
Plant response rating, Barnyardgrass (barnyardgrass [2]; [9]): 90

O=C1NCC(c2cc3ccccc3o2)C1C(=O)Nc1ccccc1C(F)(F)F (stereo not shown) [Compound 283]
Plant response rating, Galium (galium; [3]): 0
Plant response rating, Galium (galium; [4]): 0
Plant response rating, Corn (corn; [3]): 0
Plant response rating, Corn (corn; [4]): 0
Plant response rating, Wheat (wheat; [5]): 0
Plant response rating, Wheat (wheat; [4]): 0
Plant response rating, Sedge, Umbrella (sedge, umbrella): 0
Plant response rating, Rice (rice): 0
Plant response rating, Blackgrass (blackgrass; [3]): 0
Plant response rating, Blackgrass (blackgrass; [4]): 0
Plant response rating, Ragweed (ragweed; [6]): 0
Plant response rating, Ragweed (ragweed; [7]): 0
Plant response rating, Ragweed (ragweed; [8]): 0
Plant response rating, Ragweed (ragweed; [9]): 0
Plant response rating, Pigweed (pigweed; [6]): 0
Plant response rating, Pigweed (pigweed; [7]): 0
Plant response rating, Pigweed (pigweed; [8]): 0
Plant response rating, Pigweed (pigweed; [9]): 0
Plant response rating, Barnyardgrass (barnyardgrass [1]): 20
Plant response rating, Kochia (kochia; [10]): 0
Plant response rating, Kochia (kochia; [7]): 0
Plant response rating, Kochia (kochia; [8]): 0
Plant response rating, Kochia (kochia; [9]): 0
Plant response rating, Foxtail, Giant (giant foxtail; [10]): 0
Plant response rating, Foxtail, Giant (giant foxtail; [7]): 10
Plant response rating, Foxtail, Giant (giant foxtail; [8]): 0
Plant response rating, Foxtail, Giant (giant foxtail; [9]): 0
Plant response rating, Ryegrass, Italian (ryegrass, Italian; [6]): 0
Plant response rating, Ryegrass, Italian (ryegrass, Italian; [7]): 0
Plant response rating, Ryegrass, Italian (ryegrass, Italian; [8]): 0
Ryegrass, Italian plant response rating (ryegrass, Italian; [11]): 0
Plant response rating, Ducksalad (ducksalad): 85
Plant response rating, Barnyardgrass (barnyardgrass [2]; [10]): 0
Plant response rating, Barnyardgrass (barnyardgrass [2]; [7]): 60
Plant response rating, Barnyardgrass (barnyardgrass [2]; [8]): 0
Plant response rating, Barnyardgrass (barnyardgrass [2]; [9]): 0

CSc1cccc(C2CNC(=O)C2C(=O)Nc2ccc(F)cc2F)c1 (stereo not shown) [Compound 288]
Plant response rating, Galium (galium; [5]): 0
Plant response rating, Galium (galium; [4]): 0
Plant response rating, Corn (corn; [5]): 0
Plant response rating, Corn (corn; [4]): 0
Plant response rating, Wheat (wheat; [5]): 0
Plant response rating, Wheat (wheat; [4]): 0
Plant response rating, Sedge, Umbrella (sedge, umbrella): 0
Plant response rating, Rice (rice): 0
Plant response rating, Blackgrass (blackgrass; [5]): 0
Plant response rating, Blackgrass (blackgrass; [4]): 0
Plant response rating, Ragweed (ragweed; [6]): 0
Plant response rating, Ragweed (ragweed; [7]): 0
Plant response rating, Ragweed (ragweed; [8]): 0
Plant response rating, Ragweed (ragweed; [9]): 0
Plant response rating, Pigweed (pigweed; [6]): 0
Plant response rating, Pigweed (pigweed; [7]): 0
Plant response rating, Pigweed (pigweed; [8]): 0
Plant response rating, Pigweed (pigweed; [9]): 0
Plant response rating, Barnyardgrass (barnyardgrass [1]): 20
Plant response rating, Kochia (kochia; [6]): 0
Plant response rating, Kochia (kochia; [7]): 20
Plant response rating, Kochia (kochia; [8]): 30
Plant response rating, Kochia (kochia; [9]): 50
Plant response rating, Foxtail, Giant (giant foxtail; [6]): 20
Plant response rating, Foxtail, Giant (giant foxtail; [7]): 30
Plant response rating, Foxtail, Giant (giant foxtail; [8]): 30
Plant response rating, Foxtail, Giant (giant foxtail; [9]): 90
Plant response rating, Ryegrass, Italian (ryegrass, Italian; [6]): 0
Plant response rating, Ryegrass, Italian (ryegrass, Italian; [7]): 0
Plant response rating, Ryegrass, Italian (ryegrass, Italian; [8]): 0
Ryegrass, Italian plant response rating (ryegrass, Italian; [11]): 20
Plant response rating, Ducksalad (ducksalad): 65
Plant response rating, Barnyardgrass (barnyardgrass [2]; [6]): 20
Plant response rating, Barnyardgrass (barnyardgrass [2]; [7]): 80
Plant response rating, Barnyardgrass (barnyardgrass [2]; [8]): 30
Plant response rating, Barnyardgrass (barnyardgrass [2]; [9]): 70

O=C1NCC(c2ccc(Cl)s2)C1C(=O)Nc1ccccc1C(F)(F)F (stereo not shown) [Compound 293]
Plant response rating, Galium (galium; [5]): 20
Plant response rating, Galium (galium; [4]): 60
Plant response rating, Corn (corn; [5]): 0
Plant response rating, Corn (corn; [4]): 0
Plant response rating, Wheat (wheat; [5]): 0
Plant response rating, Wheat (wheat; [4]): 0
Plant response rating, Sedge, Umbrella (sedge, umbrella): 0
Plant response rating, Rice (rice): 0
Plant response rating, Blackgrass (blackgrass; [5]): 0
Plant response rating, Blackgrass (blackgrass; [4]): 10
Plant response rating, Ragweed (ragweed; [6]): 0
Plant response rating, Ragweed (ragweed; [7]): 0
Plant response rating, Pigweed (pigweed; [6]): 0
Plant response rating, Pigweed (pigweed; [7]): 0
Plant response rating, Pigweed (pigweed; [8]): 0
Plant response rating, Pigweed (pigweed; [9]): 0
Plant response rating, Barnyardgrass (barnyardgrass [1]): 35
Plant response rating, Kochia (kochia; [6]): 0
Plant response rating, Kochia (kochia; [7]): 0
Plant response rating, Kochia (kochia; [8]): 0
Plant response rating, Kochia (kochia; [9]): 0
Plant response rating, Foxtail, Giant (giant foxtail; [6]): 50
Plant response rating, Foxtail, Giant (giant foxtail; [7]): 70
Plant response rating, Foxtail, Giant (giant foxtail; [8]): 80
Plant response rating, Foxtail, Giant (giant foxtail; [9]): 90
Plant response rating, Ryegrass, Italian (ryegrass, Italian; [6]): 0
Plant response rating, Ryegrass, Italian (ryegrass, Italian; [7]): 0
Plant response rating, Ryegrass, Italian (ryegrass, Italian; [8]): 0
Ryegrass, Italian plant response rating (ryegrass, Italian; [11]): 0
Plant response rating, Ducksalad (ducksalad): 95
Plant response rating, Barnyardgrass (barnyardgrass [2]; [6]): 50
Plant response rating, Barnyardgrass (barnyardgrass [2]; [7]): 70
Plant response rating, Barnyardgrass (barnyardgrass [2]; [8]): 20
Plant response rating, Barnyardgrass (barnyardgrass [2]; [9]): 70

O=C1NCC(c2ccc(Cl)s2)C1C(=O)Nc1cccc(F)c1F (stereo not shown) [Compound 294]
Plant response rating, Galium (galium; [5]): 0
Plant response rating, Galium (galium; [4]): 30
Plant response rating, Corn (corn; [5]): 0
Plant response rating, Corn (corn; [4]): 0
Plant response rating, Wheat (wheat; [5]): 20
Plant response rating, Wheat (wheat; [4]): 20
Plant response rating, Sedge, Umbrella (sedge, umbrella): 0
Plant response rating, Rice (rice): 0
Plant response rating, Blackgrass (blackgrass; [5]): 20
Plant response rating, Blackgrass (blackgrass; [4]): 30
Plant response rating, Ragweed (ragweed; [6]): 0
Plant response rating, Ragweed (ragweed; [7]): 20
Plant response rating, Ragweed (ragweed; [8]): 0
Plant response rating, Ragweed (ragweed; [9]): 0
Plant response rating, Pigweed (pigweed; [6]): 0
Plant response rating, Pigweed (pigweed; [7]): 0
Plant response rating, Pigweed (pigweed; [8]): 0
Plant response rating, Pigweed (pigweed; [9]): 20
Plant response rating, Barnyardgrass (barnyardgrass [1]): 20
Plant response rating, Kochia (kochia; [6]): 30
Plant response rating, Kochia (kochia; [7]): 50
Plant response rating, Kochia (kochia; [8]): 40
Plant response rating, Kochia (kochia; [9]): 90
Plant response rating, Foxtail, Giant (giant foxtail; [6]): 30
Plant response rating, Foxtail, Giant (giant foxtail; [7]): 80
Plant response rating, Foxtail, Giant (giant foxtail; [8]): 70
Plant response rating, Foxtail, Giant (giant foxtail; [9]): 90
Plant response rating, Ryegrass, Italian (ryegrass, Italian; [6]): 0
Plant response rating, Ryegrass, Italian (ryegrass, Italian; [7]): 20
Plant response rating, Ryegrass, Italian (ryegrass, Italian; [8]): 0
Ryegrass, Italian plant response rating (ryegrass, Italian; [11]): 30
Plant response rating, Ducksalad (ducksalad): 98
Plant response rating, Barnyardgrass (barnyardgrass [2]; [6]): 60
Plant response rating, Barnyardgrass (barnyardgrass [2]; [7]): 90
Plant response rating, Barnyardgrass (barnyardgrass [2]; [8]): 70
Plant response rating, Barnyardgrass (barnyardgrass [2]; [9]): 90
